Experimental data published in the NIST ThermoML archive (doi:10.1016/j.fluid.2007.04.030).
± gives the expanded uncertainty stated by the source.

Test: xn = mol fraction of the nth substance listed
Conditions: 101 kPa, Liquid

COc1cc2c(cc1O)CC1c3c(cc(O)c(OC)c3-2)CCN1C (centres undefined) [boldine] + CCCCCCCCO
mass density [kg/m3]
Conditions | x1 = 0.00398 | x1 = 0.00806 | x1 = 0.01216
283.15 K | 835.34 ± 0.54 | 838.57 ± 0.53 | 842.06 ± 0.53
288.15 K | 831.91 ± 0.54 | 835.14 ± 0.54 | 838.62 ± 0.53
293.15 K | 828.46 ± 0.55 | 831.68 ± 0.55 | 835.16 ± 0.54
298.15 K | 825 ± 0.56 | 828.21 ± 0.55 | 831.68 ± 0.55
303.15 K | 821.52 ± 0.56 | 824.72 ± 0.56 | 828.18 ± 0.55
308.15 K | 818.01 ± 0.57 | 821.21 ± 0.57 | 824.66 ± 0.56
313.15 K | 814.49 ± 0.58 | 817.68 ± 0.57 | 821.12 ± 0.57
318.15 K | 810.93 ± 0.58 | 814.12 ± 0.58 | 817.55 ± 0.57
323.15 K | 807.34 ± 0.59 | 810.52 ± 0.59 | 813.96 ± 0.58
328.15 K | 803.73 ± 0.6 | 806.9 ± 0.59 | 810.33 ± 0.59
333.15 K | 800.08 ± 0.61 | 803.24 ± 0.6 | 806.66 ± 0.59

COc1cc2c(cc1O)CC1c3c(cc(O)c(OC)c3-2)CCN1C (centres undefined) [boldine] + CCCCCCO
mass density [kg/m3]
Conditions | x1 = 0.00308 | x1 = 0.00633 | x1 = 0.00958
283.15 K | 831.02 ± 2.1 | 834.31 ± 2.1 | 837.66 ± 2.1
288.15 K | 827.44 ± 2.1 | 830.73 ± 2.1 | 834.07 ± 2.1
293.15 K | 823.83 ± 2.1 | 827.12 ± 2.1 | 830.46 ± 2.1
298.15 K | 820.21 ± 2.1 | 823.49 ± 2.1 | 826.82 ± 2.1
303.15 K | 816.56 ± 2.1 | 819.84 ± 2.1 | 823.16 ± 2.1
308.15 K | 812.88 ± 2.1 | 816.16 ± 2.1 | 819.48 ± 2.1
313.15 K | 809.17 ± 2.1 | 812.44 ± 2.1 | 815.76 ± 2.1
318.15 K | 805.43 ± 2.1 | 808.7 ± 2.1 | 812.01 ± 2.1
323.15 K | 801.65 ± 2.1 | 804.91 ± 2.1 | 808.22 ± 2.1
328.15 K | 797.83 ± 2.1 | 801.09 ± 2.1 | 804.39 ± 2.1
333.15 K | 793.97 ± 2.1 | 797.22 ± 2.1 | 800.51 ± 2.1

COc1cc2c(cc1O)CC1c3c(cc(O)c(OC)c3-2)CCN1C (centres undefined) [boldine] + CCCCCO
mass density [kg/m3]
Conditions | x1 = 0.00272 | x1 = 0.00547 | x1 = 0.00826
283.15 K | 825.74 ± 0.69 | 829.04 ± 0.68 | 832.39 ± 0.68
288.15 K | 822.11 ± 0.69 | 825.4 ± 0.69 | 828.75 ± 0.68
293.15 K | 818.44 ± 0.7 | 821.73 ± 0.69 | 825.07 ± 0.69
298.15 K | 814.76 ± 0.7 | 818.04 ± 0.7 | 821.37 ± 0.69
303.15 K | 811.05 ± 0.71 | 814.33 ± 0.71 | 817.65 ± 0.7
308.15 K | 807.31 ± 0.72 | 810.58 ± 0.71 | 813.91 ± 0.71
313.15 K | 803.53 ± 0.72 | 806.8 ± 0.72 | 810.12 ± 0.71
318.15 K | 799.72 ± 0.73 | 802.99 ± 0.72 | 806.31 ± 0.72
323.15 K | 795.87 ± 0.73 | 799.13 ± 0.73 | 802.45 ± 0.72
328.15 K | 791.97 ± 0.74 | 795.23 ± 0.74 | 798.54 ± 0.73
333.15 K | 788.02 ± 0.75 | 791.28 ± 0.74 | 794.59 ± 0.74
